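Dose response: 5 concentrations. Exposure: 48 h. Format: 96-well plates. Endpoint: linear interpolation; highest concentration if not reached. GI50 marks 50% less growth. The concentration for full growth arrest is given as TGI.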
Tests used:
Assay in all cases: NCI-60 cell line screen, 48 h
[1] = test system: BT-549 breast
[2] = test system: SK-OV-3 ovarian
[3] = test system: MDA-MB-435
[4] = test system: T-47D breast
[5] = test system: HCC-2998 colon
[6] = test system: HL-60(TB) leukemia
[7] = test system: K-562 leukemia
[8] = test system: SK-MEL-2 melanoma
[9] = test system: MCF7 breast
[10] = test system: NCI/ADR-RES ovarian
[11] = test system: OVCAR-5 ovarian
[12] = test system: HCT-116 colon
[13] = test system: SF-539 CNS
[14] = test system: MALME-3M melanoma
[15] = test system: DU-145 prostate
[16] = test system: HOP-92 NSCLC
[17] = test system: SF-295 CNS
[18] = test system: CCRF-CEM leukemia
[19] = test system: HS 578T breast
[20] = test system: SK-MEL-28 melanoma
[21] = test system: SNB-19 CNS
[22] = test system: IGROV1 ovarian
[23] = test system: NCI-H226 lung
[24] = test system: LOX IMVI melanoma
[25] = test system: CAKI-1 renal
[26] = test system: MOLT-4 leukemia
[27] = test system: SN12C renal
[28] = test system: HOP-62 NSCLC
[29] = test system: UACC-257 melanoma
[30] = test system: NCI-H23 lung
[31] = test system: MDA-MB-231 breast
[32] = test system: U251 CNS
[33] = test system: OVCAR-8 ovarian
[34] = test system: HCT-15 colon
[35] = test system: SF-268 CNS
[36] = test system: 786-0 renal
[37] = test system: KM12 colon
[38] = test system: NCI-H522 lung
[39] = test system: PC-3 prostate
[40] = test system: NCI-H460 lung
[41] = test system: OVCAR-3 ovarian
[42] = test system: SR leukemia
[43] = test system: EKVX NSCLC
[44] = test system: A498 renal
[45] = test system: UACC-62 melanoma
[46] = test system: HT29 colon
[47] = test system: TK-10 renal
[48] = test system: ACHN renal
[49] = test system: SK-MEL-5 melanoma
[50] = test system: RXF 393 renal
[51] = test system: COLO 205 colon
[52] = test system: OVCAR-4 ovarian
[53] = test system: A549 NSCLC
[54] = test system: SNB-75 CNS
[55] = test system: UO-31 renal
[56] = test system: SW-620 colon
[57] = test system: M14 melanoma

COc1ccc2c(c1)C(=O)/C(=C/c1cccc(OCC(=O)c3ccccc3)c1)O2
GI50 [1]: 3.63 µM
TGI [1]: 13.1 µM
GI50 [2]: 15.8 µM
TGI [2]: 29.2 µM
GI50 [3]: 3.4 µM
TGI [3]: 13.6 µM
GI50 [4]: 2.04 µM
TGI [4]: 4.88 µM
GI50 [5]: 1.74 µM
TGI [5]: 3.16 µM
GI50 [6]: 1.39 µM
TGI [6]: 3.23 µM
GI50 [7]: 0.722 µM
TGI [7]: 2.13 µM
GI50 [8]: 16.7 µM
TGI [8]: 30.5 µM
GI50 [9]: 4.2 µM
TGI [9]: 33.7 µM
GI50 [10]: 8.9 µM
TGI [10]: 26.4 µM
GI50 [11]: 4.31 µM
TGI [11]: 14.5 µM
GI50 [12]: 1.53 µM
TGI [12]: 2.96 µM
GI50 [13]: 3.79 µM
TGI [13]: 13.8 µM
GI50 [14]: 1.95 µM
TGI [14]: 4.8 µM
GI50 [15]: 3.9 µM
TGI [15]: 13.7 µM
GI50 [16]: 3.86 µM
TGI [16]: 16.1 µM
GI50 [17]: 20 µM
TGI [17]: 38.1 µM
GI50 [18]: 0.81 µM
TGI [18]: 2.42 µM
GI50 [19]: 13.8 µM
TGI [19]: 48.1 µM
GI50 [20]: 4.76 µM
TGI [20]: 15.7 µM
GI50 [21]: 15 µM
TGI [21]: 29 µM
GI50 [22]: 3.66 µM
TGI [22]: 13.3 µM
GI50 [23]: 15.9 µM
TGI [23]: 43.5 µM
GI50 [24]: 2.83 µM
TGI [24]: 9.54 µM
GI50 [25]: 3.16 µM
TGI [25]: 11.5 µM
GI50 [26]: 1.44 µM
TGI [26]: 3.52 µM
GI50 [27]: 6.15 µM
TGI [27]: 25.6 µM
GI50 [28]: 14.5 µM
TGI [28]: 28.5 µM
GI50 [29]: 18.8 µM
TGI [29]: 33.5 µM
GI50 [30]: 4.37 µM
TGI [30]: 15.8 µM
GI50 [31]: 7.62 µM
TGI [31]: 23.2 µM
GI50 [32]: 7.97 µM
TGI [32]: 20.8 µM
GI50 [33]: 16.4 µM
TGI [33]: 31.4 µM
GI50 [34]: 2.42 µM
TGI [34]: 6.83 µM
GI50 [35]: 4.25 µM
TGI [35]: 16.6 µM
GI50 [36]: 4.59 µM
TGI [36]: 17.5 µM
GI50 [37]: 4.23 µM
TGI [37]: 16.1 µM
GI50 [38]: 1.62 µM
TGI [38]: 3.26 µM
GI50 [39]: 4.44 µM
TGI [39]: 17.4 µM
GI50 [40]: 14.4 µM
TGI [40]: 36 µM
GI50 [41]: 1.83 µM
TGI [41]: 3.36 µM
GI50 [42]: 1.47 µM
TGI [42]: 3.26 µM
GI50 [43]: 9.88 µM
TGI [43]: 29.1 µM
GI50 [44]: 17.3 µM
TGI [44]: 31 µM
GI50 [45]: 13.4 µM
TGI [45]: 27 µM
GI50 [46]: 3.1 µM
TGI [46]: 7.56 µM
GI50 [47]: 2.45 µM
TGI [47]: 5.5 µM
GI50 [48]: 1.79 µM
TGI [48]: 3.38 µM
GI50 [49]: 14.3 µM
TGI [49]: 28.1 µM
GI50 [50]: 3.26 µM
TGI [50]: 8.01 µM
GI50 [51]: 1.9 µM
TGI [51]: 3.57 µM
GI50 [52]: 2.72 µM
TGI [52]: 6.37 µM
GI50 [53]: 4.93 µM
TGI [53]: 24.9 µM
GI50 [54]: 10.7 µM
TGI [54]: 22.9 µM
GI50 [55]: 1.59 µM
TGI [55]: 3.09 µM
GI50 [56]: 1.77 µM
TGI [56]: 3.43 µM

O=C1/C(=C/C=C/c2ccccc2)CCC1CNc1ccccc1 (stereo not drawn)
TGI [1]: > 69 µM
TGI [2]: > 100 µM
TGI [3]: > 86 µM
TGI [4]: > 68.4 µM
TGI [5]: > 100 µM
TGI [6]: 16.7 µM
TGI [7]: > 35.6 µM
TGI [9]: 32.7 µM
TGI [10]: > 100 µM
TGI [11]: > 100 µM
TGI [12]: > 50 µM
TGI [13]: > 77.5 µM
TGI [14]: > 100 µM
TGI [15]: > 100 µM
TGI [16]: > 95.1 µM
TGI [17]: > 100 µM
TGI [18]: 27.5 µM
TGI [19]: > 100 µM
TGI [20]: > 100 µM
TGI [21]: > 89.8 µM
TGI [22]: > 71.8 µM
TGI [23]: > 100 µM
TGI [24]: 40 µM
TGI [25]: > 100 µM
TGI [26]: > 100 µM
TGI [27]: 63.9 µM
TGI [28]: > 100 µM
TGI [29]: > 100 µM
TGI [30]: > 80.9 µM
TGI [31]: 51.7 µM
TGI [32]: > 100 µM
TGI [33]: > 100 µM
TGI [34]: 50.1 µM
TGI [35]: > 100 µM
TGI [36]: 41.2 µM
TGI [37]: 39.3 µM
TGI [57]: > 100 µM
TGI [38]: > 22.7 µM
TGI [39]: > 100 µM
TGI [40]: > 100 µM
TGI [41]: > 68.9 µM
TGI [42]: > 100 µM
TGI [43]: > 100 µM
TGI [44]: > 100 µM
TGI [45]: > 100 µM
TGI [46]: 63.9 µM
TGI [47]: > 74.7 µM
TGI [48]: > 100 µM
TGI [49]: > 100 µM
TGI [50]: 38.1 µM
TGI [51]: > 94.3 µM
TGI [52]: > 100 µM
TGI [53]: > 100 µM
TGI [54]: > 100 µM
TGI [55]: > 100 µM
TGI [56]: > 90.4 µM
